Laboratory results reported in US20110184147A1, “ENZYME SUBSTRATE FOR LABELING OF PROTEIN” (priority 2008, published 2011).
Entries after “also recorded” stand apart in the source; their conditions may differ.

Tests used:
MTG [1] = molecular target: T1, MTG (Streptomyces mobaraensis, UniProt P81453); experiment: MTG-catalyzed introduction of fluorescent substrates into NK6-AP (SDS-PAGE, fluorescent imager); type: biochemical, microbial
T1 construct: purchased AJINOMOTO (supplied as a gift)
Method: To perform a binding reaction, the fluorescent substrate (FITC-ε-Acp-QG, FITC-β-Ala-QG, Flc-QG, TR-β-Ala-QG or Dns-ε-Acp-QG), NK6-AP and MTG were added to 10 mM Tris-HCl (pH 8) to give respective final concentrations of 1 mM, 0.5 mg/ml and 1 U/ml and they were thoroughly agitated and the resulting solution was left to stand overnight at 4° C. For the purpose of comparison, an MTG-free sample was prepared.
After the reaction, the samples were subjected to SDS-polyacrylamide gel electrophoresis (SDS-PAGE). The gel from SDS-PAGE was examined with a fluorescent imager before it was stained with Coomassie Brilliant Blue (CBB) in solution. For the sample containing Dns-ε-Acp-QG, examination was made with a transilluminator.
(§1) A study was made using FITC-β-Ala-QG as a fluorescent substrate. The reaction conditions for introducing FITC-β-Ala-QG into NK6-AP were as follows: FITC-β-Ala-QG, NK6-AP and MTG were added to 10 mM Tris-HCl (pH 8) to give respective final concentrations of 0.1 mM, 0.5 mg/ml and 0.1 U/ml and they were thoroughly agitated at 4° C. for 0-5 hours. To trace the binding, the gel from SDS-PAGE was analyzed by a fluorescent imager.
as §1, with “1-1000 μM,” for “0.1 mM,”, “15 minutes. Tracing on” for “0-5 hours. To trace”, “sample after” for “binding,”, “reaction” for “gel from SDS-PAGE”, “performed” for “analyzed”, “the same procedure as in Experiment 2-4.” for “a fluorescent imager.”
Dns-β-Ala-QG-biotin, NK6-AP and MTG were added to 20 mM Tris-HCl (pH 8) to give respective final concentrations of 100 μM, 0.5 mg/ml, and 1 U/ml. For the purpose of comparison, an MTG-free sample was prepared. The ingredients were thoroughly agitated and the resulting solution was left to stand overnight at 4° C. for reaction.
After the reaction, the samples were subjected to SDS-polyacrylamide gel electrophoresis (SDS-PAGE). The gel from SDS-PAGE was examined with a transilluminator before it was stained with Coomassie Brilliant Blue (CBB) in solution.
To a 50 mM buffer whose pH was varied over the range of from 5 to 9, FITC-β-Ala-QG, NK6-AP and MTG were added to give respective final concentrations of 0.1 mM, 0.5 mg/ml, and 0.1 U/ml. These ingredients were well stirred and left to stand at 4° C. for reaction. After 6-hr or 15-minute reaction, the sample was mixed with a sample buffer and heated at 95° C. for 15 minutes to stop the reaction. Thereafter, SDS-polyacrylamide gel electrophoresis (SDS-PAGE) was applied. The gel from SDS-PAGE was stained with Coomassie Brilliant Blue (CBB) and observed with a fluorescent imager.
(§2) To 50 mM Tris-HCl (pH 8), FITC-β-Ala-QG, NK6-AP and MTG were added to give respective final concentrations of 0.1 mM, 0.5 mg/ml, and 0.001-1 U/ml. These ingredients were well stirred and left to stand at 4° C. for reaction. The reaction was stopped and evaluation was made by the same procedures as in Experiment 2-2.
as §2, with “FITC-β-Ala-QG-alkyne,” for “FITC-β-Ala-QG,”, “0.1” for “0.001-1”, “For the purpose of comparison, a MTG-free sample was also prepared. Both samples” for “These ingredients”

BSA (antigen) = experiment: Antigen recognizing ability by ELISA (rabbit-derived anti-BSA IgG antibody); type: binding; conditions: rabbit-derived anti-BSA IgG antibody (polyclonal) modified by MTG
Method: A study was made on samples that were prepared by introducing a fluorescent substrate (FITC-ε-Acp-QG or FITC-β-Ala-QG) into a rabbit-derived anti-BSA IgG antibody (polyclonal) under the same conditions as in Experiment 2-2.
ELISA was performed by the following procedure (FIG. 3-5). • 1) To a Black Plate, 5 mg/ml of BSA (antigen) was added in an amount of 150 µl/well and left to stand overnight at 37° C. • 2) The product of 1) was washed with PBST five times. • 3) Modified anti-BSA IgG antibodies were added in an amount of 60 µl/well and left to stand at room temperature for 5 hours. • 4) The product of 3) was washed with PBST five times. • 5) Examination was made with a fluorescent imager. • 6) A […] sample of AP-labeled anti-rabbit IgG IgG antibodies were added in an amount of 150 µl/well and left to stand at 37° C. for 3 hours. • 7) The product of 6) was washed with TBST five times. • 8) The substrate was added and 10 minutes later, fluorescence derived from the enzymatic reaction was examined with a fluorescent imager.

MTG [2] = molecular target: T1, MTG; experiment: MTG-catalyzed binding reaction of fluorescent substrate with β-casein; type: biochemical, microbial; conditions: substrate 1 mM, β-casein 0.5 mg/ml, MTG 1 U/ml, phosphate buffer pH 7, overnight 27° C.
Method: To perform a binding reaction, FITC-β-Ala-QG, β-casein and GTG were added to 50 mM HEPES (5 mM NaCl, 10 mM CaCl2, pH 7.4) to give respective final concentrations of 1 mM, 0.5 mg/ml and 0.2 U/ml and the resulting mixture was left to stand overnight at 27° C. Two comparative samples were prepared; one was a GTG-free sample and the other was prepared by performing an MTG-catalyzed reaction. For the MTG-catalyzed binding reaction, FITC-β-Ala-QG, β-casein and MTG were added to a 10 mM phosphate buffer (pH 7) to give respective final concentrations of 1 mM, 0.5 mg/ml and 1 U/ml and the resulting mixture was left to stand overnight at 27° C. Tracing on the sample after the reaction was performed by the same procedure as in Experiment 2-2.

[3] = NK6-AP 0.5 mg/ml, MTG 0.1 U/ml, pH 8, 4° C., 15 minutes

T1 sequence (P81453 77-407): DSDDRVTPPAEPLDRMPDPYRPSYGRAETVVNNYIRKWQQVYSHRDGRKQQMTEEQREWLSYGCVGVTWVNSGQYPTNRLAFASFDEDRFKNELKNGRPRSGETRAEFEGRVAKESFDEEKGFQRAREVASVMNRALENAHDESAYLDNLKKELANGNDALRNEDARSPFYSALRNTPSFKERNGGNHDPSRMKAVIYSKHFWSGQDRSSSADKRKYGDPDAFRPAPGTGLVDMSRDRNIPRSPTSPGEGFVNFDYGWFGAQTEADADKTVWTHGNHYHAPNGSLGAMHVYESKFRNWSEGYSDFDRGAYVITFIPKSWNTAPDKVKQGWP

## NC(=O)CCC(NC(=O)CCNC(=S)Nc1ccc(-c2c3ccc(=O)cc-3oc3cc(O)ccc23)c(C(=O)O)c1)C(=O)NCC(=O)O (stereo not drawn) [FITC-β-Ala-QG]
MTG [1]; 6-hr reaction, pH 5 to 9, substrate 0.1 mM, MTG 0.1 U/ml, 4° C.
  pH range with comparable levels of fluorescent intensity (reaction saturated): 5-8
MTG [1]; 15-min reaction, pH 5 to 9, substrate 0.1 mM, MTG 0.1 U/ml, 4° C.
  pH of rapid introduction into NK6-AP: rapid introduction was achieved at pH values of 6 and 8
MTG [1]; [3]
  Maximum substrate concentration at which reaction progressed: 1 mM
  Minimum substrate concentration at which reaction progressed and detection was possible: 1 µM
MTG [1]; NK6-AP, substrate 0.1 mM, pH 8, 4° C.
  Degree of introduction into NK6-AP at 1 U MTG: did not drop
MTG [1]; NK6-AP, substrate 0.1 mM, pH 8, 4° C., MTG 0.001-1 U/ml
  MTG concentration at which an adequately rapid reaction proceeded: 0.1 U
MTG [1]; substrate 1 mM, NK6-AP 0.5 mg/ml, MTG 1 U/ml, 10 mM Tris-HCl pH 8, overnight 4° C.
  Reactivity of MTG for fluorescent substrate (introduction into NK6-AP): served as substrates of MTG; also recorded: recognizable as a substrate of MTG
BSA (antigen)
  Antigen recognizing ability of modified antibody: maintained its antigen recognizing ability
MTG [2]
  Fluorescence intensity of MTG lane compared with GTG lane: higher fluorescence intensity
